From patent US8263611B2, “Hydrochloride salt of an azabicyclo[3.2.1]octane derivative” (Neurosearch A/S, priority 2007, dated 2012) come the findings set out here.

The series can be described thus: solubility by stirred slurry, salt concentration in solution by HPLC. Format: physicochemical. To be noted: 25 °C, thermodynamic from solid, after 8 days stirring at 25 degC, slurry in "a volume of solvent" (solvent not named). The procedure: The solubility of a sample of the hydrochloride salt of the invention was determined by adding an amount of it to a volume of solvent with stirring so as to form a slurry. The slurry was stirred at 25 degC. The stirred slurry was tested at regular intervals (i.e. 1, 3, 6 and 8 days) until the concentration of the salt in solution was substantially constant. HPLC was used to determine the salt concentration in solution.

Structures can show the parent of a compound that is named as a salt.

For `COCC1C2CCC(CC1c1ccc(Cl)c(Cl)c1)N2` [salt of the invention, hydrochloride salt of (1R,2R,3S,5S)-3-(3,4-dichlorophenyl)-2-[(methyloxy)methyl]-8-azabicyclo[3.2.1]octane], the solubility at 8 days was 438 mg/mL.

What is called solubility is the dissolved amount per volume that the medium holds.
